Values joined by “and” are separate entries in the source; they are usually repeats but may differ in a detail not shown here. Equal values may be shown once.
Target: T1, human Kv 1.5 (Homo sapiens, UniProt P22460)
T1 construct: expressed in transfected cells; host or cells: mouse L-929 fibroblasts stably expressing human Kv1.5
Assay: Block of IKur current in patch clamped L-929 cells stably expressing human Kv1.5
Format: cell-based
Details: patch clamped mammalian L-929 cells expressing human Kv1.5 (IKur); for inhibition at 0.3 µM: L929, 0.3 μM, read-out: KV1_5% Inh L929 @0.3 μM
Excerpt: Synders, D. J. et al., “A rapidly activating and slowly inactivating potassium channel cloned from human heart: functional analysis after stable mammalian cell culture expression”, J. Gen. Physiol., 101:513-543 (1993). […]

T1 sequence (P22460 whole entry): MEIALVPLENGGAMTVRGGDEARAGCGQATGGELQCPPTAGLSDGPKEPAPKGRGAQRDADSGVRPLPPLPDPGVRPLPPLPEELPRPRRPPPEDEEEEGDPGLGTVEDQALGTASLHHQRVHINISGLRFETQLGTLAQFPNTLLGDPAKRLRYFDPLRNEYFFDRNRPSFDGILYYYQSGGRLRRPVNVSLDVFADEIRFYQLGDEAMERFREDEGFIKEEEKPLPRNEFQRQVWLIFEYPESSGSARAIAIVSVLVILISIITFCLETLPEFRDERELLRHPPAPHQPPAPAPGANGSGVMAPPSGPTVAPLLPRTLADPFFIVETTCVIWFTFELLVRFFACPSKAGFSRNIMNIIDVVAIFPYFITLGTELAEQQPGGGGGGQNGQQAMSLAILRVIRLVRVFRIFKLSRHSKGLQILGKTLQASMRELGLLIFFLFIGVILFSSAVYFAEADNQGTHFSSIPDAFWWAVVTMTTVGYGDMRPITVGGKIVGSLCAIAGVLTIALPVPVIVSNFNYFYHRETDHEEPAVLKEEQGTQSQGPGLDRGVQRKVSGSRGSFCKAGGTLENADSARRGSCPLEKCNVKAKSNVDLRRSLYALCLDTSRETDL

SMILES | inhibition at 0.3 µM | KV1_5% Inh L929 @0.3 μM (0.3 μM)
NS(=O)(=O)c1cncc(-c2cc3cccc(-c4ccccc4)c3c(NCc3ccccn3)n2)c1 [Example 1, 5-(8-Phenyl-1-(pyridin-2-ylmethylamino)isoquinolin-3-yl)pyridine-3-sulfonamide] | 95.1% | 
Nc1cncc(-c2cc3cccc(-c4ccccc4)c3c(NCc3ccccn3)n2)c1 [Example 2, 3-(5-Aminopyridin-3-yl)-8-phenyl-N-(pyridin-2-ylmethyl)isoquinolin-1-amine] | 66.2% | 
CC(=O)Nc1cncc(-c2cc3cccc(-c4ccccc4)c3c(NCc3ccccn3)n2)c1 [Example 3, N-(5-(8-Phenyl-1-(pyridin-2-ylmethylamino)isoquinolin-3-yl)pyridin-3-yl)acetamide] | 71.9% | 
NC(=O)Nc1cncc(-c2cc3cccc(-c4ccccc4)c3c(NCc3ccccn3)n2)c1 [Example 4, 1-(5-(8-Phenyl-1-(pyridin-2-ylmethylamino)isoquinolin-3-yl)pyridin-3-yl)urea] | 88.7% | 
O=C(Nc1cccc(-c2cc3cccc(-c4ccccc4)c3c(NCc3ccccn3)n2)c1)N1CCOCC1 [Example 6, N-(3-(8-Phenyl-1-(pyridin-2-ylmethylamino)isoquinolin-3-yl)phenyl)morpholine-4-carboxamide] | 92.2% | 
NC(=O)CS(=O)(=O)c1cccc(-c2cc3cccc(-c4ccccc4)c3c(NCc3ccccn3)n2)c1 [Example 7, 2-(3-(8-Phenyl-1-(pyridin-2-ylmethylamino)isoquinolin-3-yl)phenylsulfonyl)acetamide] | 34.8% | 
NC(=O)c1cncc(-c2cc3cccc(-c4ccccc4)c3c(NCc3ccccn3)n2)c1 [Example 9, 5-(8-Phenyl-1-((pyridin-2-ylmethyl)amino)isoquinolin-3-yl)nicotinamide] |  | 81.32% and 50.45%
NS(=O)(=O)c1cncc(-c2c(Cl)nc(NCc3ccccn3)c3c(-c4ccccc4)cccc23)c1 [Example 10, 5-(3-Chloro-8-phenyl-1-(pyridin-2-ylmethylamino)isoquinolin-4-yl)pyridine-3-sulfonamide] | 99% | 
O=C(O)c1cncc(-c2c(Cl)nc(NCc3ccccn3)c3c(-c4ccccc4)cccc23)c1 [Example 12, 5-(3-Chloro-8-phenyl-1-(pyridin-2-ylmethylamino)isoquinolin-4-yl)nicotinic acid] | 52.3% | 
NS(=O)(=O)c1cncc(-c2cnc(NCc3ccccc3)c3c(-c4ccccc4)cccc23)c1 [Example 15, 5-(1-(Benzylamino)-8-phenylisoquinolin-4-yl)pyridine-3-sulfonamide] | 96.2% | 
N#Cc1nc(NCc2ccccc2)c2c(-c3ccccc3)cccc2c1-c1cncc(S(N)(=O)=O)c1 [Example 16, 5-(1-(Benzylamino)-3-cyano-8-phenylisoquinolin-4-yl)pyridine-3-sulfonamide] | 88.6% | 
NC(=O)c1nc(NCc2ccccc2)c2c(-c3ccccc3)cccc2c1-c1cncc(S(N)(=O)=O)c1 [Example 17, 1-(Benzylamino)-8-phenyl-4-(5-sulfamoylpyridin-3-yl)isoquinoline-3-carboxamide] | 93.5% | 
c1ccc(CNc2ncc(-c3cncc(-c4nn[nH]n4)c3)c3cccc(-c4ccccc4)c23)cc1 [Example 19, 4-(5-(2H-Tetrazol-5-yl)pyridin-3-yl)-N-benzyl-8-phenylisoquinolin-1-amine] | 90% | 
c1ccc(-c2cccc3cc(-c4cc[nH]n4)nc(NCc4ccccn4)c23)cc1 [Example 23, 8-phenyl-3-(1H-pyrazol-3-yl)-N-(pyridin-2-ylmethyl)isoquinolin-1-amine] | 80.2% | 
CC(C)CNc1nc(-c2cncc(S(N)(=O)=O)c2)cc2cccc(-c3ccccc3)c12 [Example 24, 5-(1-(isobutylamino)-8-phenylisoquinolin-3-yl)pyridine-3-sulfonamide] | 41.5% | 
CC(C)CCNc1nc(-c2cncc(S(N)(=O)=O)c2)cc2cccc(-c3ccccc3)c12 [Example 25, 5-(1-(isopentylamino)-8-phenylisoquinolin-3-yl)pyridine-3-sulfonamide] | 53.2% | 
NS(=O)(=O)c1cncc(-c2c(Cl)nc(NCC3CCOCC3)c3c(-c4ccccc4)cccc23)c1 [Example 29, 5-(3-chloro-8-phenyl-1-((tetrahydro-2H-pyran-4-yl)methylamino)isoquinolin-4-yl)pyridine-3-sulfonamide] | 88.4% | 
CC(=O)Nc1ccccc1-c1cc2cccc(-c3ccccc3)c2c(NCc2ccccn2)n1 [Example 30, N-(2-(8-phenyl-1-(pyridin-2-ylmethylamino)isoquinolin-3-yl)phenyl)acetamide] | 51.3% | 
CC(=O)Nc1ccc(-c2cc3cccc(-c4ccccc4)c3c(NCc3ccccn3)n2)cc1 [Example 31, N-(4-(8-phenyl-1-(pyridin-2-ylmethylamino)isoquinolin-3-yl)phenyl)acetamide] | 15.2% | 
CS(=O)(=O)N(c1cncc(-c2cc3cccc(-c4ccccc4)c3c(NCc3ccccn3)n2)c1)S(C)(=O)=O [Example 32, N-(methylsulfonyl)-N-(5-(8-phenyl-1-(pyridin-2-ylmethylamino)isoquinolin-3-yl)pyridin-3-yl)methanesulfonamide] | 70.7% | 
CNS(=O)(=O)c1cccc(-c2cc3cccc(-c4ccccc4)c3c(NCc3ccccn3)n2)c1 [Example 34, N-methyl-3-(8-phenyl-1-(pyridin-2-ylmethylamino)isoquinolin-3-yl)benzenesulfonamide] | 93.5% | 
NS(=O)(=O)c1cccc(-c2cc3cccc(-c4ccccc4)c3c(NCc3ccccn3)n2)c1 [Example 36, 3-(8-phenyl-1-(pyridin-2-ylmethylamino)isoquinolin-3-yl)benzenesulfonamide] | 94.6% | 
NS(=O)(=O)c1cncc(-c2cc3cccc(-c4ccccc4)c3c(NCc3ccccc3Cl)n2)c1 [Example 37, 5-(1-(2-chlorobenzylamino)-8-phenylisoquinolin-3-yl)pyridine-3-sulfonamide] | 34.2% | 

Other lines, results leading:

inhibition at 0.3 µM | KV1_5% Inh L929 @0.3 μM (0.3 μM) | SMILES
75.6% |  | NS(=O)(=O)Nc1cncc(-c2cc3cccc(-c4ccccc4)c3c(NCc3ccccn3)n2)c1 [Example 5]
61.4% |  | Cc1c(-c2cncc(S(N)(=O)=O)c2)nc(NCc2ccccn2)c2c(-c3ccccc3)cccc12 [Example 8, 5-(4-Methyl-8-phenyl-1-(pyridin-2-ylmethylamino)isoquinolin-3-yl)pyridine-3-sulfonamide]
98.9% |  | NS(=O)(=O)c1cncc(-c2cnc(NCc3ccccn3)c3c(-c4ccccc4)cccc23)c1 [Example 11, 5-(8-Phenyl-1-(pyridin-2-ylmethylamino)isoquinolin-4-yl)pyridine-3-sulfonamide]
97.7% |  | NC(=O)CC(=O)Nc1cccc(-c2c(Cl)nc(NCc3ccccn3)c3c(-c4ccccc4)cccc23)c1 [Example 13, N1-(3-(3-Chloro-8-phenyl-1-(pyridin-2-ylmethylamino)isoquinolin-4-yl)phenyl)malonamide]
93.2% |  | Cc1nc(NCc2ccccc2)c2c(-c3ccccc3)cccc2c1-c1cncc(S(N)(=O)=O)c1 [Example 14, 5-(1-(Benzylamino)-3-methyl-8-phenylisoquinolin-4-yl)pyridine-3-sulfonamide]
64.5% |  | Cc1n[nH]c(C)c1-c1cc2cccc(-c3ccccc3)c2c(NCc2ccccn2)n1 [Example 20, 3-(3,5-dimethyl-1H-pyrazol-4-yl)-8-phenyl-N-(pyridin-2-ylmethyl)isoquinolin-1-amine]
50.6% |  | NS(=O)(=O)c1cncc(-c2cc3cccc(-c4ccc(F)cc4)c3c(NCc3ccccn3)n2)c1 [Example 21, 5-(8-(4-fluorophenyl)-1-(pyridin-2-ylmethylamino)isoquinolin-3-yl)pyridine-3-sulfonamide]
94% |  | NS(=O)(=O)c1cncc(-c2cc3cccc(-c4ccccc4)c3c(NCc3ncccc3F)n2)c1 [Example 22, 5-(1-((3-fluoropyridin-2-yl)methylamino)-8-phenylisoquinolin-3-yl)pyridine-3-sulfonamide]
98.8% |  | CC(Nc1nc(Cl)c(-c2cncc(S(N)(=O)=O)c2)c2cccc(-c3ccccc3)c12)c1ccccn1 (centres unmarked) [Example 26, 5-(3-chloro-8-phenyl-1-(1-(pyridin-2-yl)ethylamino)isoquinolin-4-yl)pyridine-3-sulfonamide]
93.6% |  | NS(=O)(=O)c1cncc(-c2c(Cl)nc(NCc3c(F)cccc3F)c3c(-c4ccccc4)cccc23)c1 [Example 27, 5-(3-chloro-1-(2,6-difluorobenzylamino)-8-phenylisoquinolin-4-yl)pyridine-3-sulfonamide]
76.1% |  | C1=C(c2cnc(NCc3ccccc3)c3c(-c4ccccc4)cccc23)CCOC1 [Example 28, N-benzyl-4-(3,6-dihydro-2H-pyran-4-yl)-8-phenylisoquinolin-1-amine]
73.4% |  | NS(=O)(=O)c1ccc(-c2cc3cccc(-c4ccccc4)c3c(NCc3ccccn3)n2)cc1 [Example 33, 4-(8-phenyl-1-(pyridin-2-ylmethylamino)isoquinolin-3-yl)benzenesulfonamide]
36.2% |  | CS(=O)(=O)Nc1cccc(-c2cc3cccc(-c4ccccc4)c3c(NCc3ccccn3)n2)c1 [Example 35, N-(3-(8-phenyl-1-(pyridin-2-ylmethylamino)isoquinolin-3-yl)phenyl)methanesulfonamide]
90.8% |  | NC(=O)Nc1cccc(-c2cc3cccc(-c4ccccc4)c3c(NCc3ccccn3)n2)c1 [Example 38, 1-(3-(8-phenyl-1-(pyridin-2-ylmethylamino)isoquinolin-3-yl)phenyl)urea]
66.8% |  | N#Cc1cccc(-c2cc3cccc(-c4ccccc4)c3c(NCc3ccccn3)n2)c1 [Example 39, 3-(8-phenyl-1-(pyridin-2-ylmethylamino)isoquinolin-3-yl)benzonitrile]
